# Laboratory results as given in patent US20160279187A1, “CALPAIN INHIBITORS FOR IBD AND COLORECTAL CANCER TREATMENT” (UNIVERSITY OF HAWAII, priority 2013, published 2016).
# Where a SMILES comes first, the peptide text is derived from it. The star is where a group is joined. Cbz = O=C(OCc1ccccc1)*; CH2F = FC*
# Key:
# [1] = tested on: IκB / NFκB in TNFα primed macrophages; test: IκB and nuclear NFκB western blot in activated macrophages; format: cell-based, mouse; conditions: vs DMSO
# Procedure: Bone marrow derived macrophages (BMDM) were prepared as previously described by methods known to those skilled in the art. On day 5 of culture, 2×10^6 BMDM were seeded in 6-well plates and the following day were primed for 18 h with TNFα (20 ng/mL), followed by 1 h stimulation with E. faecalis (1 μg/mL; ATCC). Stimulation with E. faecalis was conducted in the presence of the zLLY-CH2F calpain-2 inhibitor (20 μg/mL) or DMSO as a control. Media was removed from treated BMDM, centrifuged at 300×g for 5 min and supernatent analyzed using the Cytometric Bead Array Mouse Inflammation Kit (BD Biosciences, San Jose, Calif.). Cytokine data were analyzed using Flowjo software (Ashland, Oreg.) and GraphPad Prism version 4.0 (GraphPad, La Jolla, Calif.). Cell pellets were lysed and analyzed for IκB and NFκB by Western blot as previously described (Miyazaki, T. et al. Journal of Atherosclerosis and Thrombosis 20, 228-237, 2013). […] Each day 4 wells were quantified using Celltiter MTS reagent (Promega) and the resulting signal was used to generate a proliferation curve. Calpain activity was measured using a Calpain activity assay kit (BioVision, Inc., Milpitas, Calif.) as previously described. Colons were harvested on day 4 and calpain activity measured. […] Supernatants were evaluated for a panel of cytokines including IFNγ, TNFα, IL-6, and MCP-1, IL-10, and IL-12. […]
# [2] = tested on: IκB / NFκB in HT-29 cells; test: IκB and nuclear NFκB western blot, HT-29; format: cell-based, human; conditions: HT-29, vs DMSO
# Procedure: Bone marrow derived macrophages (BMDM) were prepared as previously described by methods known to those skilled in the art. On day 5 of culture, 2×10^6 BMDM were seeded in 6-well plates and the following day were primed for 18 h with TNFα (20 ng/mL), followed by 1 h stimulation with E. faecalis (1 μg/mL; ATCC). Stimulation with E. faecalis was conducted in the presence of the zLLY-CH2F calpain-2 inhibitor (20 μg/mL) or DMSO as a control. Media was removed from treated BMDM, centrifuged at 300×g for 5 min and supernatent analyzed using the Cytometric Bead Array Mouse Inflammation Kit (BD Biosciences, San Jose, Calif.). Cytokine data were analyzed using Flowjo software (Ashland, Oreg.) and GraphPad Prism version 4.0 (GraphPad, La Jolla, Calif.). Cell pellets were lysed and analyzed for IκB and NFκB by Western blot as previously described (Miyazaki, T. et al. Journal of Atherosclerosis and Thrombosis 20, 228-237, 2013). […] Each day 4 wells were quantified using Celltiter MTS reagent (Promega) and the resulting signal was used to generate a proliferation curve. Calpain activity was measured using a Calpain activity assay kit (BioVision, Inc., Milpitas, Calif.) as previously described. Colons were harvested on day 4 and calpain activity measured. […]
structure (smiles),measurement,setting,value
"CC(C)C[C@H](NC(=O)OCc1ccccc1)C(=O)N[C@@H](CC(C)C)C(=O)N[C@@H](Cc1ccc(O)cc1)C(=O)CF [zLLY-CH2F, Z-LLY-CH2F] (Cbz-Leu-Leu-Tyr-CH2F)",IκB degradation,[1],decreased
same,NFκB localization to the nucleus,[1],decreased
same,IκB degradation,[2],reduced
same,NFκB nuclear localization,[2],reduced
